{"source": "patent US8414989B2", "about": "“Cyclodextrin compositions, articles, and methods” (Cellresin Technologies, LLC, priority 2011, dated 2013)", "key": {"[1]": {"assay": "Example 2: headspace analysis of 1-butene/c/α-CD powder (GC-FID)", "type": "physicochemical", "conditions": "100 mg 1-butene/c/α-CD powder, 250 mL bottle, no water, about 1 hour", "method": "1-butene/c/α-CD was analyzed by adding 100 mg of the collected and dried precipitate to a 250 mL glass bottle equipped with a septum cap, taking care to ensure that no powder adheres to the walls of the bottle. After about 1 hour, 250 μL of headspace gas was removed from the bottle using a six port, two-position gas sampling valve (Valco #EC6W) interfaced directly to a gas chromatograph (GC; Hewlett Packard 5890) using a RTx-5 GC column, 30 m×0.25 mm I.D., 0.25 μm film (obtained from Restek, Inc., of Bellefonte, Pa.) and equipped with flame ionization detector (FID). […] Then 3 mL of water was injected into the bottle through the septum, and the bottle is placed on a mechanical shaker and mixed vigorously for about 1 hour. After the shaking, 250 μL of the headspace gas is removed and added to an empty 250 mL bottle equipped with a septum cap, wherein the interior of the bottle was purged with nitrogen gas. The headspace concentration of 1-butene was quantified in the second bottle using gas chromatography by removing 250 μL, of gas from the 250 mL bottle using a six port, two-position gas sampling valve (Valco #EC6W) interfaced directly to a GC column having FID detector previously calibrated with a 6-point 1-butene (99.0% pure, Scott Specialty Gases, Plumsteadville, Pa.) calibration curve."}, "[2]": {"assay": "Example 2: 1-butene headspace release from UV-cured coating on polyethylene extrusion coated paper", "type": "physicochemical", "conditions": "cured 1-butene/c/α-CD coated 5 cm x 10 cm rectangle, 250 mL bottle; for Headspace concentration of 1-butene, Ave.: 50 μL water, average of six", "method": "A 20 mL bottle was charged with 9.8 g of UV Coating VP 10169/60 MF-2NE (obtained from Verga GmbH of Aschau am Inn, Germany) and 0.2 g of 1-butene/c/α-CD. The bottle was firmly capped and the components were mixed by shaking the bottle by hand until uniformly dispersed.\nAbout 3 mL of the mixture was removed with a dropper dispensed on a glass pan. A rubber ink roller was used to spread the mixture on the glass and roller. Next, the roller was used to coat the mixture on the coated side of a 20 cm by 20 cm section of polyethylene extrusion coated paper (REYNOLDS® Freezer Paper, 90 microns total thickness). The roller delivered a coating nominal thickness of 0.3 microns. A razor blade was used to cut a 5 cm by 10 cm rectangle from the coated sheet. Then the coated cut rectangle was passed by hand about 10 cm beneath a medium pressure mercury arc lamp operating at 200 watts per inch (79 watts per cm). After 1.5 seconds exposure to the lamp, the cured rectangle was removed. The cured rectangle was allowed to sit on a laboratory bench overnight coating side down.\nSix replicate coated rectangles were made in this fashion. Each rectangle was placed in a 250 mL serum bottle. Then the six bottles were sealed with TEFLON® faced silicone septa. The 1-butene headspace concentration was quantified using gas chromatography by removing 250 μL of gas from the sample bottle using a six port, two-position gas sampling valve interfaced directly to the GC column having FID detector.\nThen 50 μL of deionized water was injected into each bottle. […] The headspace of each of the six sealed bottles was analyzed at 0.5, 1, 2, 4, 8, 24, and 96 hours after the injection of water wherein about 3 mL of the 250 mL bottle headspace volume was removed for each analysis. In each sampling, the amount of 1-butene released from the UV coated rectangles was quantified by gas chromatography against a 6-point 1-butene calibration curve having a 0.998 correlation coefficient. Table 1 and FIG. 1 illustrate the average of six replicate samples of 1-butene headspace concentration and standard deviation."}}}
{"smiles": "C=CCC", "note": "[1-Butene, 1-butene]", "values": [{"measurement": "Headspace concentration of 1-butene", "setting": "[1]", "value": "No measurable concentration"}, {"measurement": "Headspace concentration of 1-butene, Ave.", "setting": "[2]; 0.5 hours", "value": "0.46 ppm (v/v)"}, {"measurement": "Headspace concentration of 1-butene, Ave.", "setting": "[2]; 1 hour", "value": "1.5 ppm (v/v)"}, {"measurement": "Headspace concentration of 1-butene, Ave.", "setting": "[2]; 2 hours", "value": "3.0 ppm (v/v)"}, {"measurement": "Headspace concentration of 1-butene, Ave.", "setting": "[2]; 4 hours", "value": "4.9 ppm (v/v)"}, {"measurement": "Headspace concentration of 1-butene, Ave.", "setting": "[2]; 8 hours", "value": "6.0 ppm (v/v)"}, {"measurement": "Headspace concentration of 1-butene, Ave.", "setting": "[2]; 24 hours", "value": "7.6 ppm (v/v)"}, {"measurement": "Headspace concentration of 1-butene, Ave.", "setting": "[2]; 96 hours", "value": "7.8 ppm (v/v)"}, {"measurement": "Headspace concentration of 1-butene", "setting": "[2]; before water injection", "value": "No measurable concentration"}]}
